Like-named read-outs stand apart in the source and are kept apart here. One block for each compound: values may come before it.
Legend:
THP-1 cells = experiment: survival of monocytes with LPS; format: cell-based, human
p38beta = p38beta (Homo sapiens, UniProt Q15759); experiment: p38 cascade kinase reaction, p38beta/ATF-2; format: biochemical
Experimental: (§1) After preincubation, MKK6 (ProQinase), ATF2 (ProQinase) and ATP were added to a final concentration of 10 nM, 5 μM and 10 μM respectively, then incubated 40 minutes at 30° C. and analyzed with ADP-Glo™.

[1] = tested on: Fibroblast-like synoviocytes (FLS) from patients with rheumatoid arthritis; experiment: inflammatory mediators (IL6, IL8, MCP-1) by ELISA in FLS stimulated with TNF-alpha; format: cell-based, human; details: for % of inflammatory mediators production in the presence of compounds, IL6 / % of inflammatory mediators production in the presence of compounds, IL8 / % of inflammatory mediators production in the presence of compounds, MCP-1: synoviocytes, TNFa + compound 100 uM
Experimental: Fibroblast-like synoviocytes (FLS) from patients with rheumatoid arthritis (RA) were obtained at the time of synovectomy or joint replacement. All RA patients fulfilled the American College of Rheumatology […] criteria for the diagnosis of RA (Arnett FC y cols. 1988 Arthritis Rheum 31(3):315-24).
Synovial tissue was minced and incubated with 10 μg/ml collagenase in serum-free Dulbecco modified Eagle medium (DMEM; Gibco Invitrogen, Barcelona, Spain) for 3 h at 37° C. After digestion, FLS were filtered through a nylon cell strainer (BD Falcon, Franklin Lakes, USA), washed extensively, and cultured in DMEM supplemented with 10% v/v fetal calf serum, 1% penicillin-streptomycin, and 1% L-glutamine (all reagents from PAA, Laboratories GmbH) in a humidified 5% C02 atmosphere. Adherent cells at 80-90% confluence were trypsinised and diluted at a split ratio of 1:3. FLS from 4 patients and between passages 3 to 8 were used for all experiments.
Enzyme-Linked Immunosorbent Assay (ELISA): RA FLS (1×10^4 cells/well) were cultured in DMEM 1% FCS in 96 well plates and treated with p-p38 inhibitors for 1 h. After, they were stimulated with TNF-α (10 ng/ml, Sigma Aldrich) and both treatments were present in the culture throughout the experiment. The supernatants were harvested at 18 h after treatment and assayed for IL6, IL8/CXCL8 and monocyte chemoattractant protein (MCP)-1/CCL2 by ELISA according to the manufacturer's instructions (BD Bioscience, San Jose, Calif., USA).

p38αR186A = molecular target: T1, p38αR186A (Homo sapiens, UniProt Q16539, R186A); experiment: site-mutated p38 phosphorylation cascade assay, R186A mutant; format: biochemical; details: compound 10 uM
T1 construct: made in house; host or cells: E. coli XL10-Gold
Experimental: as §1
(§2) Replacement of specific residues arginine 186 and 189 of p38α (pGEX4T-1-p38α) for alanine was performed with the QuikChange Lightining Site-Directed Mutagenesis Kit (Agilent Technologies). The following oligonucleotides were used for the arginine 186 to alanine substitution: forward primer: 5′-SEQ ID NO 7-3′; reverse primer: 5′-SEQ ID NO 8-3′. Oligonucleotides used for the arginine 189 to alanine substitution were: forward primer: 5′-SEQ ID NO 9-3′; reverse primer: 5′-SEQ ID NO 10-3′. Mutations were validated by sequencing (Genomic Unit, Parque Cientifico de Madrid). E. coli XL10-Gold ultracompentent cells (Agilent Technologies) were transformed with the vector plasmids containing p38αWT and mutants. For the expression of recombinant p38α transformed cells were cultured overnight at 37° C. in 50 ml of fresh LB medium containing ampicillin (100 μg/ml). After that, culture was diluted in fresh LB to A595=0.4 and grown for approximately 1 h at 37° C. until exponential growth and then induced with Isopropyl-β-D-thiogalactopyranoside (IPTG) 1 mM for 5 h. The cells were collected by centrifugation and cell pellet were resuspended in 50 ml of cold lysis buffer: PBS pH 7.4, EDTA 10 mM, PMSF 1 mM, Benzamidine 0.2 mM, DTT 5 mM, Triton X-100 1% and Lysozyme 1 mg/ml. The soluble and insoluble fractions were separated by centrifugation (16,000 g for 20 min). The soluble fraction was incubated for 2 hours with 1 ml of pre-equilibrated Glutathione Sepharose 4B (GE Healthcare) and the resin was extensively washed in a column with 200 ml of binding buffer: PBS, PMSF 1 mM and benzamidine 0.2 mM. Proteins were eluted with 1 ml of Tris-HCl 50 mM pH 8.0 and reduced glutathione 20 mM. 20% glycerol was added to purified proteins and stored at −80° C. Protein concentration and purity was assessed by SDS-PAGE. Kinase activity was measured by ADP-glo kit using MKK6 as activator and ATF2 as substrate. Activity recorded for p38αR186A and p38αR189A were 15.5% and 4.8%, respectively (n=4) related to wild type protein.

p38alpha [2] = molecular target: T2, p38alpha (Homo sapiens, UniProt Q16539); experiment: p38 cascade kinase reaction (inactive p38alpha, MKK6, ATF2, ADP-Glo); format: biochemical; details: ATP 100 μM; compound 10 μM; n=4; read-out: inhibition, ATP-site competitive assay, cascade p38alpha/ATF-2
T2 construct: purchased Invitrogen PV3305

[3] = tested on: TNF-α secretion, THP-1 cells; experiment: Inhibition of TNF-α secretion by LPS-stimulated THP-1; format: cell-based; details: Homo sapiens, THP-1, 3 h, monocytes with LPS, read-out: TNF abetment
Experimental: Inhibition of TNF-α Secretion by a Human Monocytic Cell Line, THP-1.
THP-1 cells, growing in log phase, were collected by centrifugation and resuspended in RPMI 1640 (Sigma Aldrich), to a final cell concentration of 2×10^6 cells/ml. Cells were plated into 24-well plates (BD Biosciences). Dilutions of compounds in dimethyl sulfoxide (DMSO) were added to the culture to a final concentration M. The final DMSO concentration was 0.5%. The cells […] suspensions were preincubated with compounds for 1 h at 37° C. in a 5% C02 humidified atmosphere before the addition of LPS (Sigma Aldrich, L2654) to a final concentration of 2 μg/ml. After that, cells were incubated for 3 h followed by centrifugation to pellet cells. Cell supernatants were stored at 4° C. until Human analysis for TNF-α content. TNF-α levels were determined by ELISA (TNF Biotrak, GE Healthcare) following the manufacturer's directions. The percentage inhibition was calculated for each compound concentration tested, and the IC50 was calculated for each compound.

p38αR189A = molecular target: T3, p38αR189A (Homo sapiens, UniProt Q16539, R189A); experiment: site-mutated p38 phosphorylation cascade assay, R189A mutant; format: biochemical; details: compound 10 uM
T3 construct: made in house; host or cells: E. coli XL10-Gold
Experimental: as §1, §2

p38alpha [4] = molecular target: T2, p38alpha; experiment: p38 cascade kinase reaction (inactive p38alpha, MKK6, ATF2, ADP-Glo); format: biochemical; details: for inhibition at 10 µM: compound 10 μM; for inhibition at 100 µM: compound 100 μM
Experimental: Purified recombinant activated p38alpha (10 nM)(ProQinase) was preincubated 10 minutes at 30° C. with the compound of interest at concentrations between 1 and 100 µM in duplicate in a final volume of 30 ul of kinase buffer (Hepes 60 mM pH 7.5, MgCl2 3 mM, MnCl2 3 mM, Sodium Orthovanadate 3 μM, DTT 1.2 mM). After preincubation, peptide substrate (SignalChem #P03-58) and ATP were added to a final concentration of 10 μM and 100 μM respectively, and then incubated 40 minutes at 30° C. for the kinase reaction. Phosphorylation was analyzed with ADP-GloM (Promega #V9101) and emitted luminescence was measured with BMG Fluostar microplate reader.
as §1

p38alpha wt = molecular target: T4, p38alpha wt (Homo sapiens, UniProt Q16539); experiment: site-mutated p38 phosphorylation cascade assay, wild type; format: biochemical; details: compound 10 uM
T4 construct: made in house; host or cells: E. coli XL10-Gold
Experimental: as §1, §2

[5] = molecular target: ATF2 (ProQinase) (Homo sapiens (Human)) (UniProt P15336)
[6] = FLS sample R 2, compound 100 μM
[7] = FLS sample R 6, compound 100 μM
[8] = FLS sample R 8, compound 100 μM
[9] = FLS sample SH203, compound 100 μM
[10] = mean of 4 FLS samples, compound 100 μM
[11] = dose response table, read-out: inhibition p38alpha/ATF-2
[12] = read-out: inhibition p38a/ATF-2 (p38 cascade)

T3 sequence (Q16539 whole entry R189A): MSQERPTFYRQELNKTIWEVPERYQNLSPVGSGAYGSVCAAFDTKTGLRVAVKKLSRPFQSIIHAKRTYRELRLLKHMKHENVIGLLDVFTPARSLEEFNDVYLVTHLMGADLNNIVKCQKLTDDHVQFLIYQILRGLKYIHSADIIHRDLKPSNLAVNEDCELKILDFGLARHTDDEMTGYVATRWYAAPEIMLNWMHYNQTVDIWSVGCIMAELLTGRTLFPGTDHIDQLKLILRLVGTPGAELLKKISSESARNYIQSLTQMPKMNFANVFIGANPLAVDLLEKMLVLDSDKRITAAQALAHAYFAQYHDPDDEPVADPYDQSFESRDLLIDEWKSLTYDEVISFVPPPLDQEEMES
T4 sequence (Q16539 whole entry): as the sequence (Q16539 whole entry R189A) above, with A189R counted along it
T2 sequence (Q16539 whole entry): as the sequence (Q16539 whole entry R189A) above, with A189R counted along it
T1 sequence (Q16539 whole entry R186A): as the sequence (Q16539 whole entry R189A) above, with R186A, A189R counted along it
Sequence of p38beta (Q15759 whole entry): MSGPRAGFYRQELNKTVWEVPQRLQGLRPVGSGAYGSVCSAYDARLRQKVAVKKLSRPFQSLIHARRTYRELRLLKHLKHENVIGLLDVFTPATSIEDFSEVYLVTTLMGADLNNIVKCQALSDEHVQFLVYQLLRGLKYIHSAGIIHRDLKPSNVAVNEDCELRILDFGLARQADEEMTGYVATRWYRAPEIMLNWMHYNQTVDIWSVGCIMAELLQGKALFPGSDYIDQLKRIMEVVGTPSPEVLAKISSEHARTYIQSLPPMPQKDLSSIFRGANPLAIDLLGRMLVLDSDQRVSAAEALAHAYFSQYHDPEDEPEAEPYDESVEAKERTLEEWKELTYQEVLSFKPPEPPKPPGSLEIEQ

Compound: CCOC(=O)c1ccc(Nc2nc3nonc3nc2N2CCC(Cc3ccccc3)CC2)cc1 [Compound 1]
Cell survival (THP-1 cells; 1 uM): 96% | Cell survival (THP-1 cells; 10 uM): 93% | inhibition at 10 µM (p38beta; compound 10 μM): 58% | inhibition at 100 µM (p38beta; compound 100 μM): 100% | IL-6, % of TNF-α control [1, 6]: 13.8% | IL-8, % of TNF-α control [1, 6]: 27.3% | MCP-1, % of TNF-α control [1, 6]: 2.1% | IL-6, % of TNF-α control [1, 7]: 8.1% | IL-8, % of TNF-α control [1, 7]: 4.8% | MCP-1, % of TNF-α control [1, 7]: 0.0% | IL-6, % of TNF-α control [1, 8]: 23.5% | IL-8, % of TNF-α control [1, 8]: 67.4% | MCP-1, % of TNF-α control [1, 8]: 22.5% | IL-6, % of TNF-α control [1, 9]: 101.4% | IL-8, % of TNF-α control [1, 9]: 43.8% | MCP-1, % of TNF-α control [1, 9]: 8.8% | IL-6, % of TNF-α control, Media [1, 10]: 36.7% | IL-8, % of TNF-α control, Media [1, 10]: 35.8% | MCP-1, % of TNF-α control, Media [1, 10]: 8.4% | inhibition at 10 µM (p38αR186A): 20% | inhibition at 10 µM (p38alpha [2]): 92% | inhibition at 1 µM [3]: 9% | inhibition at 10 µM [3]: 40% | inhibition at 10 µM (p38αR189A): 25% | inhibition at 10 µM (p38alpha [4]; ATP 10 μM, n=4, read-out: inhibition, ATP-site competitive assay, cascade p38alpha/ATF-2): 94% | inhibition upon ATP increase (ATP-site competition) (p38alpha [4]; cascade p38alpha/ATF-2, n=4): Maintains Inhibition to the Same Level Upon ATP Increase | inhibition at 10 µM (p38alpha [4]; [11]): 88% | inhibition at 100 µM (p38alpha [4]; [11]): 101% | inhibition at 10 µM (p38alpha wt): 64%

Compound: COc1ccccc1NC(=O)C[C@H](NCCCO)C(=O)O [Compound 3]
inhibition at 100 µM (p38alpha [4]; [12]): 17%

Compound: Nc1ccc(OCC(O)C[n+]2ccc(CCS(=O)(=O)[O-])cc2)cc1 (stereo not drawn) [Compound 4]
inhibition at 10 µM (p38alpha [4]; [12]): 8%

Compound: CC(C)n1nnnc1C(c1ccc(O)cc1)N1CCN(c2nc3ccccc3s2)CC1 (stereo not drawn) [Compound 5]
inhibition at 10 µM (p38alpha [4]; [12]): 28%

Compound: CCOCCCNc1nc2nnnn2c2sc3c(c12)CCN(Cc1ccccc1)C3 [Compound 6]
inhibition at 10 µM (p38alpha [4]; [12]): 107%

Compound: Oc1nc(N/N=C/c2ccc3c(c2)OCO3)nc(N2CCOCC2)n1 [Compound 7]
inhibition at 10 µM (p38alpha [4]; [12]): 16%

Compound: OCCOc1nc(OCCO)nc(OCCO)n1 [Compound 8]
% of inflammatory mediators production in the presence of compounds, IL6 [1]: 66.5% | % of inflammatory mediators production in the presence of compounds, IL8 [1]: 83.4% | % of inflammatory mediators production in the presence of compounds, MCP-1 [1]: 75.4% | inhibition at 100 µM (p38alpha [4]; [12]): 20%

Compound: O=S(=O)(c1cnccc1N1CCN(CCO)CC1)N1CCOCC1 [Compound 11]
inhibition at 10 µM (p38alpha [4]; [12]): 1%

Compound: CCOC(=O)N1CCN(C2=Nc3nnnn3C3CC4CN(Cc5ccccc5)CCC4C23)CC1 (stereo not drawn) [Compound 32]
Cell survival (THP-1 cells; 10 uM): 99% | % of inflammatory mediators production in the presence of compounds, IL6 [1]: 52.4% | % of inflammatory mediators production in the presence of compounds, IL8 [1]: 34.8% | % of inflammatory mediators production in the presence of compounds, MCP-1 [1]: 22.7% | inhibition at 10 µM (p38αR186A): 17% | inhibition at 10 µM [3]: 21% | inhibition at 10 µM (p38αR189A): 9% | inhibition at 10 µM (p38alpha wt): 23%

Continued, in another order:

inhibition at 10 µM (p38αR186A): 23% | inhibition at 10 µM (p38αR189A): 19% | inhibition at 10 µM (p38alpha wt): 47%
Compound: CCOC(=O)c1ccc(Nc2nc3nonc3nc2N2CCC(Oc3ccncc3)CC2)cc1 [Compound 33]
Cell survival (THP-1 cells; 0.1 uM): 100% | Cell survival (THP-1 cells; 1 uM): 99% | Cell survival (THP-1 cells; 10 uM): 97% | inhibition at 0.1 µM ([3]; 0.1 uM): 21% | inhibition at 1 µM [3]: 46% | inhibition at 10 µM [3]: 62%

kinase activity of the cascade MKK6/p38α/ATF2 (ADP-glo kit) (% related to wild type protein) (p38αR189A (Homo sapiens)): 4.8 | kinase activity of the cascade MKK6/p38α/ATF2 (ADP-glo kit) (% related to wild type protein) (p38αR186A (Homo sapiens)): 15.5
Compound: MKK6 (ProQinase) (from UniProt P52564) (enzyme)

kinase activity (ADP-glo kit) (% related to wild type protein) [5]: 15.5
Compound: p38αR186A (enzyme)

kinase activity (ADP-glo kit) (% related to wild type protein) [5]: 4.8
Compound: p38αR189A (enzyme)

Reference: US20160194336A1, “P38 MAPK INHIBITORS FOR THE TREATMENT OF INFLAMMATORY DISEASES” (ALLINKY BIOPHARMA, priority 2012, published 2016)
